In the test the test system is NCI-H226 xenograft. In words: Inhibition of mouse xenograft NCI-H226 tumors. The test is classed as in vivo, BALB/c nude mice. The note with it: Day 27, p.o., QD. The source says: This study evaluated the in vivo therapeutic efficacy of TEAD inhibitors in the treatment of the subcutaneous lung cancer NCI-H226 xenograft model in female BALB/c nude mice.
• ANOVA Analysis of variance • BW Body weight • BWL Body weight loss • FFPE Formalin fixed paraffin embedded • IACUC Institutional animal care and use committee • MTV Mean tumor volume • N/A Not available or not applicable • p.o. Oral (ly) • QD Once a day • REG REG=[(T0−Ti)/T0]×100%; • Ti as the mean tumor volume of the treatment group on the measurement day; • T0 as the mean tumor volume of the treatment group on Day 0. • ROA Route of administration • RT Room temperature • RTV Relative tumor volume • SD Standard deviation • SEM Standard error of mean • SOC Standard of care used in clinical setting for a specific disease • TBD To be determined • T/C The Ti/Ci value (%): T/C %=Ti/Ci×100; • Ti and Ci are the mean tumor volumes of the treatment and control groups, respectively, on a given day. • TGI Tumor growth inhibition; TGI %=(1−Ti/Ci)×100; • Ti and Ci are the mean tumor volumes of the treatment and control groups, respectively, on a given day. • TV Tumor volume • PK/PD Pharmacokinetics/Pharmacodynamics • ΔInhibition Mean % ΔInhibition=((Ci−C0)−(Ti−T0))/(Ci−C0)*100% • Ti and Ci are the mean tumor volumes of the treatment and control groups, respectively, on a given day. T0 and C0 as the mean tumor volumes of the treatment and vehicle groups on Day 0.
• Species Mus musculus • Strain Balb/c nude • Supplier GemPharmatech Co., Ltd • Gender Female • No. of Animals Ordered 68 (45 plus 23 spare) • No. of Animals Assigned 45 • to Study • Average Age of Animals 6-8 weeks • at Study Initiation
The NCI-H226 cells (CL-00364) cancer cells were maintained in vitro with RPMI1640 medium supplemented with 10% fetal bovine serum at 37° C. in an atmosphere of 5% CO2 in the air. The cells in exponential growth phase were harvested and quantitated by cell counter before tumor inoculation.
Each mouse was inoculated subcutaneously in the right front flank region with NCI-H226 tumor cells (1×10^7) in 0.2 ml of PBS mixed with Matrigel (1:1) for tumor development.
The randomization was performed when the mean tumor size reached 138.81 mm^3. 45 mice were enrolled in the study. All animals were randomly allocated to 9 study groups, 5 mice in each group. Randomization was performed based on “Matched distribution” method/“Stratified” method (StudyDirector™ software, version 3.1.399.19)/randomized block design. The date of randomization was denoted as day 0.
The treatment was initiated on the same day of randomization (day 0) per study design.
After tumor cells inoculation, the animals were checked daily for morbidity and mortality. During routine monitoring, the animals were checked for any effects of tumor growth and treatments on behavior such as mobility, food and water consumption, body weight gain/loss (Body weights were measured twice per week after randomization), eye/hair matting and any other abnormalities. Mortality and observed clinical signs were recorded for individual animals in detail.
Tumor volumes were measured twice per week after randomization in two dimensions using a caliper, and the volume was expressed in mm^3 using the formula: “V=(L×W×W)/2, where V is tumor volume, L is tumor length (the longest tumor dimension) and W is tumor width (the longest tumor dimension perpendicular to L). Dosing as well as tumor and body weight measurements were conducted in a Laminar Flow Cabinet.
To compare tumor volumes of different groups at a pre-specified day, Bartlett's test was first used to check the assumption of homogeneity of variance across all groups. When the p-value of Bartlett's test was >=0.05, one-way ANOVA was performed to test overall equality of means across all groups. […]

Structures are written as SMILES.

In general, T/C refers to the ratio of treated to control. A word on the TGI: it is how far tumour growth fell short of that in controls. Read a high TGI as much slowing of growth.

For the molecule `C[C@H](NC(=O)c1cnc2c(C3=CCC(C(F)(F)F)CC3)cccc2c1)c1ccccn1` (stereo partly drawn) [Compound 2, N—((S)-1-(pyridin-2-yl)ethyl)-8-(4-(trifluoromethyl)cyclohex-1-en-1-yl)quinoline-3-carboxamide], for the setting “3 mg/kg”, the T/C is given as 64.62%, the TGI turned out to be 35.38% and the “Tumor Volume (mean ± SEM)” value was 345.21 ± 85.33 mm^3. Further, where the note is “10 mg/kg”, the T/C is recorded as 45.64%, the TGI stood at 54.36% and the “Tumor Volume (mean ± SEM)” value came out at 243.78 ± 74.70 mm^3. Under “25 mg/kg”, the T/C is recorded as 19.66%, the TGI is reported as 80.34% and the “Tumor Volume (mean ± SEM)” value is reported as 105.03 ± 13.17 mm^3.

For the molecule `O=C(NCc1ncco1)c1cnc2c(C3=CCC(C(F)(F)F)CC3)cccc2c1` (stereo not drawn) [Compound 11, N-(oxazol-2-ylmethyl)-8-(4-(trifluoromethyl)cyclohex-1-en-1-yl)quinoline-3-carboxamide], the T/C by setting is: (3 mg/kg) 89.83%; (10 mg/kg) 36.49%; (25 mg/kg) 21.10%. The TGI is recorded as 10.17% (3 mg/kg), 63.51% (10 mg/kg) and 78.90% (25 mg/kg). In addition, the “Tumor Volume (mean ± SEM)” value (3 mg/kg) is 479.84 ± 96.60 mm^3, the “Tumor Volume (mean ± SEM)” value (10 mg/kg) came to 194.94 ± 42.44 mm^3 and the “Tumor Volume (mean ± SEM)” value (25 mg/kg) came to 112.73 ± 17.20 mm^3.

The values are drawn from patent US20250223306A1, “TEAD INHIBITORS AND METHODS OF USE” (Sporos BioDiscovery, Inc., priority 2022, published 2025).
